A value given as a limit tells only on which side of the number the result lay.

Data set [1] in a line: Solubility in Cyclomethicone. It counts as physicochemical. The following applies: at RT.
A short description of data set [2]: UV absorption (λmax, E 1/1). It counts as physicochemical. The following applies: for E 1/1: at λmax.

Regarding `CCN(CC)c1ccc(C(=O)c2ccccc2C(=O)OCCC[Si](C)(C)C)c(O)c1` [Example A1], the “solubility in Cyclomethicone” value in data set [1] was 1.8%. Besides, in data set [2], the λmax is 350 nm and the “E 1/1” value is given as 822.
The corresponding values for `CCN(CC)c1ccc(C(=O)c2ccccc2C(=O)OCCOC(=O)C(C)C[Si](C)(O[Si](C)(C)C)O[Si](C)(C)C)c(O)c1` (centres unmarked) [Example A2] are greater than 20%, 350 nm and 571.
As to `CCN(CC)c1ccc(C(=O)c2ccccc2C(=O)OCCOC(=O)C(C)C[Si](C)(O[Si](C)(C)C)O[Si](C)(C)C)c(O)c1` (centres unmarked) [Example A3], in data set [2], the λmax is 357 nm and the “E 1/1” value was found to be 606.

For the origin of these results see patent US7999128B2, “Hydroxybenzophenone derivatives” (BASF SE, priority 2006, dated 2011).
